In patent US20240246950A1, “Anilino-Pyrazole Derivatives, Compositions and Methods Thereof” (Ensem Therapeutics, priority 2022, published 2024):

Key:
[1] = target: CDK1/cyclinB (Homo sapiens, UniProt P06493); experiment: In vitro kinase TR-FRET assay CDK1/cyclinB; assay type: biochemical; settings: enzyme 0.3 nM, ATP 56 μM
Procedure, shortened: (§1)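 Enzymes at 3 nM (CDK2/CycA2), 0.6 nM (CDK2/CycE1), 0.3 nM (CDK1/cyclinB), 0.6 nM (GSK3β) with ATP at 27, 82, 56, 7.6 μM respectively, 50 nM ULight-4E-BP1 peptide, HEPES pH7.5; 10-point 3-fold dilutions. 1 h reaction at room temperature; Eu-anti-phospho-4E-BP1 TR-FRET (665/615 nm) read; IC50 from dose-response curves.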

[2] = target: GSK3β (Homo sapiens, UniProt P49841); experiment: In vitro kinase TR-FRET assay GSK3β; assay type: biochemical; settings: enzyme 0.6 nM, ATP 7.6 μM
Procedure, shortened: as §1

[3] = tested on: TOV21G; experiment: Cell proliferation (CyQUANT) TOV21G; assay type: cell-based; settings: Homo sapiens, 168 h, 7 days, read-out: Anti-proliferation assay: IC50 (nM) [Cell Line: TOV21G]
Procedure, shortened: (§2)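 Cells were seeded at 2500, 1000 or 3000 cells/well, cultured overnight, then exposed to 3-fold compound dilutions for 7 days (final DMSO at most 0.01%). CyQUANT fluorescence was read at Ex/Em 480/520 nm; % inhibition computed relative to same-plate DMSO wells.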

[4] = target: CDK2/CycE1 (Homo sapiens, UniProt P24941); experiment: In vitro kinase TR-FRET assay CDK2/CycE1; assay type: biochemical; settings: enzyme 0.6 nM, ATP 82 μM, read-out: CDK2 cyclinE1 activity assay: IC50
Procedure, shortened: as §1

[5] = tested on: OVCAR3; experiment: Cell proliferation (CyQUANT) OVCAR3; assay type: cell-based; settings: Homo sapiens, OVCAR-3, 168 h, OVCAR3, 7 days, read-out: Anti-proliferation assay: IC50 (nM) [Cell Line: OVCAR3]
Procedure, shortened: as §2

[6] = target: CDK2/CycA2 (Homo sapiens, UniProt P24941); experiment: In vitro kinase TR-FRET assay CDK2/CycA2; assay type: biochemical; settings: enzyme 3 nM, ATP 27 μM, read-out: CDK2 cyclinA2 activity assay: IC50
Procedure, shortened: as §1

CDK1/cyclinB, sequence (P06493 whole entry): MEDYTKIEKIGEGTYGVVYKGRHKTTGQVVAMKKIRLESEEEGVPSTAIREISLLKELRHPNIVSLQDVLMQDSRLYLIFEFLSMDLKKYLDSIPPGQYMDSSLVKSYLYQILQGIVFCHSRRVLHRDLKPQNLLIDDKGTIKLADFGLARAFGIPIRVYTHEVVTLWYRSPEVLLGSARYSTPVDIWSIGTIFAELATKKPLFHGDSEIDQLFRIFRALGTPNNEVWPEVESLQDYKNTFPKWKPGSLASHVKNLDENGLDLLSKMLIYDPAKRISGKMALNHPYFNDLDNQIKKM
CDK1/cyclinB, sequence (P14635 whole entry partner): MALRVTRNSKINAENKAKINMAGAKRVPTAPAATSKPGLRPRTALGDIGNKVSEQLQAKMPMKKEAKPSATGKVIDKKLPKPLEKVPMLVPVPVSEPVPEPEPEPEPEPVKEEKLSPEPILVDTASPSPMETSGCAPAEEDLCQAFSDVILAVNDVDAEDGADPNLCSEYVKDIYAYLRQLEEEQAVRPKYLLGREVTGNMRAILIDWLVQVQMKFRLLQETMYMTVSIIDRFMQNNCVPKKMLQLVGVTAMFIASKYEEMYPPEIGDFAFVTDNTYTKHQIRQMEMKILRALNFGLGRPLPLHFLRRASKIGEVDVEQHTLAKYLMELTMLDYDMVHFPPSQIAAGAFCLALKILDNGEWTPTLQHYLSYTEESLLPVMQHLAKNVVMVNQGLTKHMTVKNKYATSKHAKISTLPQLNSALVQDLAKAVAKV
GSK3β, sequence (P49841 whole entry, species assumed): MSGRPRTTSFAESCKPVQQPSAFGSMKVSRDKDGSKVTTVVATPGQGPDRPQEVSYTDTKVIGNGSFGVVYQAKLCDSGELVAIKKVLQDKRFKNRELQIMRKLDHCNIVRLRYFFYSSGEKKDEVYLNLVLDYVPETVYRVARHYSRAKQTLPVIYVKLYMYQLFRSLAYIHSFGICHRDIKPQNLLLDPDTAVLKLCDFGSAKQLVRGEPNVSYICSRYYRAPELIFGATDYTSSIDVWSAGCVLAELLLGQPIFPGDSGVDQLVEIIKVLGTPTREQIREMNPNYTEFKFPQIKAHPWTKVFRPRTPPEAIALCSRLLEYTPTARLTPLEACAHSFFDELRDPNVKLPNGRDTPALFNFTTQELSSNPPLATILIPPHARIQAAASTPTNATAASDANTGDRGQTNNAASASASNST

## CC(C)NC(=O)O[C@H]1CC[C@@H](c2cc(Nc3cccc4c3CCS4(=O)=O)n[nH]2)CC1 [Example 49, (1s,4s)-4-(3-((1,1-dioxido-2,3-dihydrobenzo[b]thiophen-4-yl)amino)-1H-pyrazol-5-yl)cyclohexyl isopropylcarbamate]
[1]
  IC50: 50 to 500 nM
[2]
  IC50: > 1000 nM
[3]
  IC50: 500 to 1000 nM
[4]
  IC50: < 50 nM
[5]
  IC50: ≤ 500 nM
[6]
  IC50: < 50 nM

## CC(C)NC(=O)O[C@@H]1CC[C@H](c2cc(Nc3ccc4c(c3)CCCS4(=O)=O)n[nH]2)C1 [Example 26, (1R,3S)-3-(3-((1,1-dioxidothiochroman-6-yl)amino)-1H-pyrazol-5-yl)cyclopentyl isopropylcarbamate]
[1]
  IC50: 50 to 500 nM
[2]
  IC50: 50 to 500 nM
[3]
  IC50: ≥ 1000 nM
[4]
  IC50: < 50 nM
[5]
  IC50: ≤ 500 nM
[6]
  IC50: < 50 nM

## CC(C)NC(=O)O[C@H]1CC[C@@H](c2cc(Nc3ccc4c(c3)CCNS4(=O)=O)n[nH]2)CC1 [Example 11, (1s,4s)-4-{3-[(1,1-dioxo-3,4-dihydro-2H-1λ^6,2-benzothiazin-6-yl)amino]-1H-pyrazol-5-yl}cyclohexyl N-(propan-2-yl)carbamate]
[1]
  IC50: < 50 nM
[2]
  IC50: > 1000 nM
[3]
  IC50: ≥ 1000 nM
[4]
  IC50: < 50 nM
[5]
  IC50: ≤ 500 nM
[6]
  IC50: < 50 nM

## CC(C)NC(=O)O[C@@H]1CC[C@H](c2cc(Nc3ccc4c(c3)N(C)S(=O)(=O)C4)n[nH]2)C1 [Example 41, (1R,3S)-3-{5-[(1-methyl-2,2-dioxo-1,3-dihydro-2X^6-benzo[2,1-c][1,2]thiazol-6-yl)amino]-2H-pyrazol-3-yl}cyclopentyl (prop-2-ylamino)methanoate]
[1]
  IC50: 50 to 500 nM
[2]
  IC50: 500 to 1000 nM
[3]
  IC50: ≤ 500 nM
[4]
  IC50: < 50 nM
[5]
  IC50: ≤ 500 nM
[6]
  IC50: < 50 nM

## CC(C)NC(=O)O[C@H]1C[C@@H](c2cc(Nc3ccc4c(c3)CS(=O)(=O)C4)n[nH]2)C1 [Example 28, (1s,3s)-3-(3-((2,2-dioxido-1,3-dihydrobenzo[c]thiophen-5-yl)amino)-1H-pyrazol-5-yl)cyclobutyl isopropylcarbamate]
[1]
  IC50: < 50 nM
[2]
  IC50: 50 to 500 nM
[3]
  IC50: ≤ 500 nM
[4]
  IC50: < 50 nM
[5]
  IC50: ≤ 500 nM
[6]
  IC50: < 50 nM

## CC(C)NC(=O)O[C@@H]1CC[C@H](c2cc(Nc3ccc4c(c3)CC(F)(F)C4)n[nH]2)C1 [Example 32, (1R,3S)-3-(3-((2,2-difluoro-2,3-dihydro-1H-inden-5-yl)amino)-1H-pyrazol-5-yl)cyclopentyl isopropylcarbamate]
[1]
  IC50: 50 to 500 nM
[2]
  IC50: 500 to 1000 nM
[3]
  IC50: ≥ 1000 nM
[4]
  IC50: < 50 nM
[5]
  IC50: ≤ 500 nM
[6]
  IC50: < 50 nM

## CC(C)NC(=O)O[C@@H]1CC[C@H](c2cc(Nc3ccc4c(c3)C(C)NS4(=O)=O)[nH]n2)C1 (stereo partly drawn) [Example 10, (1R,3S)-3-(5-((3-methyl-1,1-dioxido-2,3-dihydrobenzo[d]isothiazol-5-yl)amino)-1H-pyrazol-3-yl)cyclopentyl isopropylcarbamate]
[1]
  IC50: < 50 nM
[2]
  IC50: 50 to 500 nM
[3]
  IC50: ≥ 1000 nM
[4]
  IC50: < 50 nM
[5]
  IC50: ≤ 500 nM
[6]
  IC50: < 50 nM

## CC(C)NC(=O)O[C@@H]1CC[C@H](c2cc(Nc3ccc4c(c3)C(=O)NS4(=O)=O)[nH]n2)C1 [Example 5, (1R,3S)-3-(5-((1,1-dioxido-3-oxo-2,3-dihydrobenzo[d]isothiazol-5-yl)amino)-1H-pyrazol-3-yl)cyclopentyl isopropylcarbamate]
[1]
  IC50: > 1000 nM
[2]
  IC50: 500 to 1000 nM
[3]
  IC50: ≥ 1000 nM
[4]
  IC50: < 50 nM
[5]
  IC50: ≥ 1000 nM
[6]
  IC50: < 50 nM

## CC(C)NC(=O)O[C@H]1CC[C@@H](c2cc(Nc3ccc4c(c3)CS(=O)(=O)C4)n[nH]2)CC1 [Example 33, (1s,4s)-4-(3-((2,2-dioxido-1,3-dihydrobenzo[c]thiophen-5-yl)amino)-1H-pyrazol-5-yl)cyclohexyl isopropylcarbamate]
[1]
  IC50: < 50 nM
[2]
  IC50: > 1000 nM
[3]
  IC50: ≤ 500 nM
[4]
  IC50: < 50 nM
[5]
  IC50: ≤ 500 nM
[6]
  IC50: < 50 nM

## Cc1ccc(Nc2cc([C@H]3CC[C@@H](OC(=O)NC(C)C)C3)[nH]n2)c2c1S(=O)(=O)CC2 [Example 65, (1R,3S)-3-(3-((7-methyl-1,1-dioxido-2,3-dihydrobenzo[b]thiophen-4-yl)amino)-1H-pyrazol-5-yl)cyclopentyl isopropylcarbamate]
[1]
  IC50: 50 to 500 nM
[2]
  IC50: 50 to 500 nM
[3]
  IC50: 500 to 1000 nM
[4]
  IC50: < 50 nM
[5]
  IC50: ≤ 500 nM
[6]
  IC50: < 50 nM

## CC(C)NC(=O)O[C@@H]1CC[C@H](c2cc(Nc3ccc(F)c4c3CNS4(=O)=O)[nH]n2)C1 [Example 66, (1R,3S)-3-(5-((7-fluoro-1,1-dioxido-2,3-dihydrobenzo[d]isothiazol-4-yl)amino)-1H-pyrazol-3-yl)cyclopentyl isopropylcarbamate]
[1]
  IC50: < 50 nM
[2]
  IC50: 50 to 500 nM
[3]
  IC50: ≥ 1000 nM
[4]
  IC50: < 50 nM
[5]
  IC50: ≤ 500 nM
[6]
  IC50: < 50 nM

## CC(C)NC(=O)O[C@@H]1CC[C@H](c2cc(Nc3ccc(F)c4c3CN(C)S4(=O)=O)n[nH]2)C1 [Example 67, (1R,3S)-3-{5-[(7-fluoro-2-methyl-1,1-dioxo-2,3-dihydro-1λ^6-benzo[2,1-d][1,2]thiazol-4-yl)amino]-2H-pyrazol-3-yl}cyclopentyl (prop-2-ylamino)methanoate]
[1]
  IC50: 50 to 500 nM
[2]
  IC50: > 1000 nM
[3]
  IC50: ≥ 1000 nM
[4]
  IC50: < 50 nM
[5]
  IC50: ≤ 500 nM
[6]
  IC50: < 50 nM

## CC(C)NC(=O)O[C@@H]1CC[C@H](c2cc(Nc3cccc4c3CS(=O)(=O)CC4)n[nH]2)C1 [Example 63, (1R,3S)-3-(3-((2,2-dioxidoisothiochroman-8-yl)amino)-1H-pyrazol-5-yl)cyclopentyl isopropylcarbamate]
[1]
  IC50: 50 to 500 nM
[2]
  IC50: > 1000 nM
[3]
  IC50: ≥ 1000 nM
[4]
  IC50: < 50 nM
[5]
  IC50: ≤ 500 nM
[6]
  IC50: < 50 nM

## CC(C)NC(=O)O[C@@H]1CC[C@H](c2cc(Nc3ccc4c(c3)CS(=O)(=O)N4C)n[nH]2)C1 [Example 42, (1R,3S)-3-{5-[(1-methyl-2,2-dioxo-1,3-dihydro-2%6-benzo[c][1,2]thiazol-5-yl)amino]-2H-pyrazol-3-yl}cyclopentyl (prop-2-ylamino)methanoate]
[1]
  IC50: 50 to 500 nM
[2]
  IC50: 500 to 1000 nM
[3]
  IC50: ≤ 500 nM
[4]
  IC50: < 50 nM
[5]
  IC50: ≤ 500 nM
[6]
  IC50: < 50 nM

## CC(C)NC(=O)O[C@@H]1CC[C@H](c2cc(Nc3ccc4c(c3)CCC(=O)N4)[nH]n2)C1 [Example 30, (1R,3S)-3-{5-[(2-oxo-1,2,3,4-tetrahydroquinolin-6-yl)amino]-1H-pyrazol-3-yl}cyclopentyl (prop-2-ylamino)methanoate]
[1]
  IC50: 50 to 500 nM
[2]
  IC50: > 1000 nM
[3]
  IC50: ≥ 1000 nM
[4]
  IC50: < 50 nM
[5]
  IC50: 500 to 1000 nM
[6]
  IC50: < 50 nM

## COC1CS(=O)(=O)c2ccc(Nc3cc([C@H]4CC[C@@H](OC(=O)NC(C)C)C4)n[nH]3)cc21 (stereo partly drawn) [Example 15, (1R,3S)-3-{5-[(3-methoxy-1,1-dioxo-2,3-dihydro-1λ^6-benzothiophen-5-yl)amino]-2H-pyrazol-3-yl}cyclopentyl (prop-2-ylamino)methanoate]
[1]
  IC50: 50 to 500 nM
[2]
  IC50: 50 to 500 nM
[3]
  IC50: ≥ 1000 nM
[4]
  IC50: < 50 nM
[5]
  IC50: ≤ 500 nM
[6]
  IC50: < 50 nM
